Laboratory results from patent US8802597B2, “Herbicidal pyrimidines” (E I du Pont de Nemours and Company, priority 2003, dated 2014).

What was measured:
Assay type in all cases: in vivo
[1] = tested on: duck salad (Heteranthera limosa); test: Test B flooded paddy test; settings: Flood, scale 0 to 100
How it was run: (§1)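 Rice, umbrella sedge, duck salad and barnyardgrass grown to 2-leaf stage under flooded paddy conditions and treated with formulated test chemicals. Kept in greenhouse 13–15 days, then visually rated against untreated controls on a 0–100 scale (0 no effect, 100 complete control).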

rice (Oryza sativa) = test: Test B flooded paddy test; settings: Flood, scale 0 to 100
How it was run: as §1

[2] = tested on: umbrella sedge (Cyperus difformis); test: Test B flooded paddy test; settings: Flood, scale 0 to 100
How it was run: as §1

[3] = tested on: barnyardgrass (Echinochloa crus-galli); test: Test B flooded paddy test; settings: Flood
How it was run: as §1

[4] = tested on: lambsquarters (Chenopodium album); test: Test B pre/postemergence
How it was run: (§2)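 Formulation: non-phytotoxic solvent blend with surfactant. Timing: preemergence on seeds, postemergence at 1- to 4-leaf (2–18 cm). Assessment: visual, 0–100 against controls, after 13–15 days' greenhouse growth.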

[5] = tested on: cocklebur (Xanthium strumarium); test: Test B pre/postemergence
How it was run: as §2

[6] = tested on: Surinam grass (Brachiaria decumbens); test: Test B pre/postemergence
How it was run: as §2

[7] = tested on: giant foxtail (Setaria faberii); test: Test B pre/postemergence
How it was run: as §2

corn (Zea mays) = test: Test B pre/postemergence
How it was run: as §2

[8] = tested on: morningglory (Ipomoea coccinea); test: Test B pre/postemergence
How it was run: as §2

[9] = tested on: wheat (Triticum aestivum); test: Test B pre/postemergence
How it was run: as §2

[10] = tested on: velvetleaf (Abutilon theophrasti); test: Test B pre/postemergence
How it was run: as §2

[11] = tested on: barnyardgrass (Echinochloa crus-galli); test: Test B pre/postemergence
How it was run: as §2

[12] = tested on: crabgrass (Digitaria sanguinalis); test: Test B pre/postemergence
How it was run: as §2

[13] = tested on: pigweed (Amaranthus retroflexus); test: Test B pre/postemergence
How it was run: as §2

wild oat (Avena fatua) = test: Test B postemergence; settings: for Oat, Wild plant response rating: scale 0 to 100 (0 no effect, 100 complete control)
How it was run: as §2

[14] = tested on: blackgrass (Alopecurus myosuroides); test: Test B postemergence; settings: for Blackgrass plant response rating: scale 0 to 100 (0 no effect, 100 complete control)
How it was run: as §2

[15] = Postemergence, 125 g ai/ha, scale 0 to 100 (0 no effect, 100 complete control)
[16] = Postemergence, 500 g ai/ha, scale 0 to 100
[17] = Preemergence, 125 g ai/ha, scale 0 to 100 (0 no effect, 100 complete control)
[18] = Preemergence, 500 g ai/ha, scale 0 to 100 (0 no effect, 100 complete control)
[19] = Postemergence, 62 g ai/ha, scale 0 to 100 (0 no effect, 100 complete control)
[20] = Preemergence, 62 g ai/ha, scale 0 to 100, 0 no effect, 100 complete control

CCCOC(=O)c1nc(C2CC2)nc(N)c1Br [Compound 15]
20: Plant response rating, Corn (corn (Zea mays); [17])
70: Plant response rating, Rice (rice (Oryza sativa); 1000 g ai/ha) | Plant response rating, Sedge, Umbrella ([2]; 1000 g ai/ha) | Plant response rating, Cocklebur [5, 17] | Plant response rating, Foxtail, Giant [7, 16] | Plant response rating, Morningglory [8, 17] | Plant response rating, Wheat [9, 16] | Plant response rating, Velvetleaf [10, 17] | Plant response rating, Crabgrass [12, 17] | Plant response rating, Oat, Wild (wild oat (Avena fatua); 500 g ai/ha, scale 0 to 100) | Blackgrass plant response rating ([14]; 125 g ai/ha)
90: Plant response rating, Barnyardgrass ([3]; 1000 g ai/ha, scale 0 (no effect) to 100 (complete control)) | Plant response rating, Lambsquarters [4, 17] | Plant response rating, Surinam Grass [6, 16] | Surinam Grass plant response rating [6, 18] | Plant response rating, Velvetleaf [10, 16] | Barnyardgrass plant response rating [11, 15] | Plant response rating, Barnyardgrass [11, 16] | Barnyardgrass plant response rating [11, 18] | Crabgrass plant response rating [12, 18] | Plant response rating, Pigweed [13, 17]
30: Plant response rating, Surinam Grass [6, 17] | Crabgrass plant response rating [12, 15]
50: Corn plant response rating (corn (Zea mays); [15])
40: Foxtail, Giant plant response rating [7, 15] | Plant response rating, Foxtail, Giant [7, 17] | Wheat plant response rating [9, 15] | Plant response rating, Wheat [9, 17] | Plant response rating, Barnyardgrass [11, 17]
10: Oat, Wild plant response rating (wild oat (Avena fatua); 125 g ai/ha)
60: Surinam Grass plant response rating [6, 15] | Wheat plant response rating [9, 18] | Plant response rating, Crabgrass [12, 16]
100: Lambsquarters plant response rating [4, 15] | Plant response rating, Lambsquarters [4, 16] | Lambsquarters plant response rating [4, 18] | Cocklebur plant response rating [5, 15] | Plant response rating, Cocklebur [5, 16] | Cocklebur plant response rating [5, 18] | Morningglory plant response rating [8, 15] | Plant response rating, Morningglory [8, 16] | Morningglory plant response rating [8, 18] | Velvetleaf plant response rating [10, 18] | Plant response rating, Pigweed [13, 16] | Pigweed plant response rating [13, 18]
80: Plant response rating, Ducksalad ([1]; 1000 g ai/ha) | Foxtail, Giant plant response rating [7, 18] | Plant response rating, Corn (corn (Zea mays); [16]) | Corn plant response rating (corn (Zea mays); [18]) | Velvetleaf plant response rating [10, 15] | Pigweed plant response rating [13, 15] | Plant response rating, Blackgrass ([14]; 500 g ai/ha, scale 0 to 100)

CCOC(=O)c1nc(-c2ccc(I)cc2)nc(N)c1Cl [Compound 133]
60: Surinam Grass plant response rating [6, 19] | Foxtail, Giant plant response rating [7, 19] | Plant response rating, Wheat [9, 17] | Plant response rating, Velvetleaf [10, 17] | Crabgrass plant response rating [12, 19] | Oat, Wild plant response rating (wild oat (Avena fatua); 125 g ai/ha) | Blackgrass plant response rating ([14]; 62 g ai/ha)
20: Plant response rating, Cocklebur [5, 20] | Plant response rating, Foxtail, Giant [7, 17]
70: Plant response rating, Lambsquarters [4, 17] | Surinam Grass plant response rating [6, 15] | Foxtail, Giant plant response rating [7, 15] | Corn plant response rating (corn (Zea mays); [19]) | Morningglory plant response rating [8, 19] | Barnyardgrass plant response rating [11, 19] | Barnyardgrass plant response rating [11, 15] | Crabgrass plant response rating [12, 15] | Plant response rating, Crabgrass [12, 17] | Plant response rating, Pigweed [13, 20] | Blackgrass plant response rating ([14]; 125 g ai/ha)
10: Plant response rating, Surinam Grass [6, 17]
30: Plant response rating, Barnyardgrass [11, 20] | Plant response rating, Barnyardgrass [11, 17]
100: Lambsquarters plant response rating [4, 19] | Lambsquarters plant response rating [4, 15] | Cocklebur plant response rating [5, 19] | Cocklebur plant response rating [5, 15] | Morningglory plant response rating [8, 15] | Velvetleaf plant response rating [10, 15] | Pigweed plant response rating [13, 15]
80: Corn plant response rating (corn (Zea mays); [15]) | Plant response rating, Pigweed [13, 17]
40: Plant response rating, Crabgrass [12, 20] | Oat, Wild plant response rating (wild oat (Avena fatua); 62 g ai/ha)
0: Plant response rating, Rice (rice (Oryza sativa); 125 g ai/ha) | Plant response rating, Rice (rice (Oryza sativa); 500 g ai/ha) | Plant response rating, Barnyardgrass ([3]; 125 g ai/ha, scale 0 to 100) | Plant response rating, Barnyardgrass ([3]; 500 g ai/ha, scale 0 to 100) | Plant response rating, Surinam Grass [6, 20] | Plant response rating, Foxtail, Giant [7, 20] | Plant response rating, Corn (corn (Zea mays); [20]) | Plant response rating, Corn (corn (Zea mays); [17]) | Plant response rating, Morningglory [8, 20] | Plant response rating, Morningglory [8, 17] | Wheat plant response rating [9, 19]
90: Plant response rating, Ducksalad ([1]; 125 g ai/ha) | Plant response rating, Ducksalad ([1]; 500 g ai/ha) | Plant response rating, Sedge, Umbrella ([2]; 125 g ai/ha) | Plant response rating, Sedge, Umbrella ([2]; 500 g ai/ha) | Velvetleaf plant response rating [10, 19] | Pigweed plant response rating [13, 19]
50: Plant response rating, Cocklebur [5, 17] | Wheat plant response rating [9, 15] | Plant response rating, Wheat [9, 20] | Plant response rating, Velvetleaf [10, 20]
